Source: PubChem BioAssay AID330 (DTP/NCI, 2004)
“And” between values parts separate entries of the source, which are not always exact repeats. Equal values may be shown once. Inconclusive results and toxic doses are left out. Peptide text beside a SMILES is read from it. * marks the point of attachment. Boc = CC(C)(C)OC(=O)*

Test system: P388 leukemia ip, CD2F1 mice, survival T/C
Assay: NCI In Vivo Anticancer Drug Screen. Data for tumor model P388 Leukemia (intraperitoneal) in CD2F1 (CDF1) mice
Conditions: endpoint: median survival time, higher = longer survival
How it was run: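 Mice carrying the transplanted tumor received test compound or vehicle. Survival was recorded in each group, and the value is the treated-group measurement divided by that of the vehicle-treated control group.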

[1] = dose: 25.0 mg/kg/injection, schedule: Q01DX005 (ip), vehicle: saline
[2] = dose: 50.0 mg/kg/injection, schedule: Q01DX005 (ip), vehicle: saline
[3] = dose: 100.0 mg/kg/injection, schedule: Q04DX003 (ip), vehicle: saline with Tween-80
[4] = dose: 200.0 mg/kg/injection, schedule: Q04DX003 (ip), vehicle: saline with Tween-80
[5] = dose: 100.0 mg/kg/injection, schedule: Q01DX001 (ip), vehicle: saline
[6] = dose: 200.0 mg/kg/injection, schedule: Q01DX001 (ip), vehicle: saline
[7] = dose: 400.0 mg/kg/injection, schedule: Q01DX001 (ip), vehicle: saline
[8] = dose: 60.0 mg/kg/injection, schedule: Q01DX005 (ip), vehicle: saline with Tween-80
[9] = dose: 120.0 mg/kg/injection, schedule: Q01DX005 (ip), vehicle: saline with Tween-80
[10] = dose: 50.0 mg/kg/injection, schedule: Q01DX005 (ip), vehicle: Klucel (hydroxypropylcellulose) (HPC)
[11] = dose: 100.0 mg/kg/injection, schedule: Q01DX005 (ip), vehicle: Klucel (hydroxypropylcellulose) (HPC)
[12] = dose: 200.0 mg/kg/injection, schedule: Q01DX005 (ip), vehicle: Klucel (hydroxypropylcellulose) (HPC)
[13] = dose: 50.0 mg/kg/injection, schedule: Q01DX009 (ip), vehicle: Klucel (hydroxypropylcellulose) (HPC)
[14] = dose: 100.0 mg/kg/injection, schedule: Q01DX009 (ip), vehicle: Klucel (hydroxypropylcellulose) (HPC)
[15] = dose: 200.0 mg/kg/injection, schedule: Q01DX009 (ip), vehicle: Klucel (hydroxypropylcellulose) (HPC)
[16] = dose: 6.25 mg/kg/injection, schedule: Q01DX005 (ip), vehicle: saline with Tween-80
[17] = dose: 12.5 mg/kg/injection, schedule: Q01DX005 (ip), vehicle: saline with Tween-80
[18] = dose: 50.0 mg/kg/injection, schedule: Q01DX009 (ip), vehicle: saline
[19] = dose: 100.0 mg/kg/injection, schedule: Q01DX009 (ip), vehicle: saline
[20] = dose: 50.0 mg/kg/injection, schedule: Q01DX009 (ip), vehicle: saline with Tween-80
[21] = dose: 100.0 mg/kg/injection, schedule: Q01DX009 (ip), vehicle: saline with Tween-80
[22] = dose: 200.0 mg/kg/injection, schedule: Q01DX009 (ip), vehicle: saline with Tween-80
[23] = dose: 200.0 mg/kg/injection, schedule: Q01DX009 (ip), vehicle: saline
[24] = dose: 50.0 mg/kg/injection, schedule: Q01DX005 (ip), vehicle: saline with Tween-80

`COc1cccc(Oc2cccc[n+]2CC(C)=O)c1` was tested, and the T/C [1] was 98 % of control and the T/C [2] was 98 % of control.
In the case of `CCCCCCCCCCCCC1C(=O)NCCNCCCNCCNC1=O`, the T/C (dose: 12.5 mg/kg/injection, schedule: Q01DX005 (ip), vehicle: saline) is reported as 101 % of control, the T/C [1] is reported as 97 % of control and the T/C [2] is reported as 105 % of control.
For `[C-]#[O+].[C-]#[O+].[CH3][Sn]([CH3])[c]1ccccc1.[Fe+5].[c-]1[c-][c-][cH-][c-]1`, the T/C [3] was 108 % of control and the T/C [4] was 118 % of control.
With `C=CC(C)CC(N)C(=O)O` (stereo not given) the T/C (dose: 60.0 mg/kg/injection, schedule: Q01DX005 (ip), vehicle: saline) was 123 % of control, the T/C (dose: 120.0 mg/kg/injection, schedule: Q01DX005 (ip), vehicle: saline) was 105 % of control and the T/C (dose: 240.0 mg/kg/injection, schedule: Q01DX005 (ip), vehicle: saline) was 104 % of control.
With `CN(C(=O)c1cc2c(cc1Br)OCO2)c1cccc2ccccc12` the T/C (dose: 12.5 mg/kg/injection, schedule: Q01DX009 (ip), vehicle: distilled water + Tween-80) was 98 % of control, the T/C (dose: 25.0 mg/kg/injection, schedule: Q01DX009 (ip), vehicle: distilled water + Tween-80) was 103 % of control and the T/C (dose: 50.0 mg/kg/injection, schedule: Q01DX009 (ip), vehicle: distilled water + Tween-80) was 103 % of control. The T/C (dose: 100.0 mg/kg/injection, schedule: Q01DX009 (ip), vehicle: distilled water + Tween-80) was 95 % of control and the T/C (dose: 200.0 mg/kg/injection, schedule: Q01DX009 (ip), vehicle: distilled water + Tween-80) was 100 % of control.
With `COCC1(C)CCCC2(C)C3=CC(O)CCC3CCC12` (stereo not given) the T/C [5] was 98 % of control, the T/C [6] was 97 % of control and the T/C [7] was 98 % of control.
`O=C(CCCC(=O)Nc1cccc([N+](=O)[O-])c1)CC(=O)c1ccc([N+](=O)[O-])cc1` was tested, and the T/C [8] was 100 % of control, the T/C [9] was 102 % of control and the T/C (dose: 240.0 mg/kg/injection, schedule: Q01DX005 (ip), vehicle: saline with Tween-80) was 103 % of control.
`CC1(C)OC(=O)C(=Cc2ccc(-c3ccccc3[N+](=O)[O-])o2)C(=O)O1` was tested, and the T/C [10] was 92 % of control, the T/C [11] was 105 % of control and the T/C [12] was 100 % of control.
For `CC[N+](C)(CC)CCOC(C)=O`, the T/C (dose: 6.25 mg/kg/injection, schedule: Q01DX001 (ip), vehicle: saline) was 100 % of control, the T/C (dose: 12.5 mg/kg/injection, schedule: Q01DX001 (ip), vehicle: saline) was 100 % of control and the T/C (dose: 25.0 mg/kg/injection, schedule: Q01DX001 (ip), vehicle: saline with Tween-80) was 101 % of control. For the same molecule, the T/C (dose: 25.0 mg/kg/injection, schedule: Q01DX001 (ip), vehicle: saline) was 98 % of control.
`COc1ccc2[nH]c3cc4c(=O)c5cc(OC)ccc5[nH]c4cc3c(=O)c2c1` was tested, and the T/C [13] was 96 % of control, the T/C [14] was 100 % of control and the T/C [15] was 100 % of control.
For `NNC(=O)c1cnn(-c2ccccc2)c1N`, the T/C (dose: 15.0 mg/kg/injection, schedule: Q01DX005 (ip), vehicle: saline with Tween-80) was 99 % of control, the T/C (dose: 30.0 mg/kg/injection, schedule: Q01DX005 (ip), vehicle: saline with Tween-80) was 93 % of control and the T/C [8] was 99 % of control and 94 % of control.
With `CCCCCCC(=O)/C=C/c1cc(Cl)cc(Cl)c1O` the T/C [13] was 105 % of control, the T/C [14] was 91 % of control and the T/C [15] was 101 % of control.
For `COc1cccc([B-]23OCC[N+]2(CNC(=O)c2ccccc2O)CCO3)c1` (stereo not given), the T/C [10] was 106 % of control, the T/C [11] was 104 % of control and the T/C [12] was 112 % of control.
With `CCN=C1C=CC(=C(c2ccc(N(CC)CC)cc2)c2ccc(N(CC)CC)cc2)c2ccccc21` the T/C [16] was 110 % of control and 113 % of control, the T/C [17] was 118 % of control (2×) and 119 % of control and the T/C (dose: 25.0 mg/kg/injection, schedule: Q01DX005 (ip), vehicle: saline with Tween-80) was 115 % of control.
In the case of `CCC[CH2][Sn]([CH2]CCC)([CH2]CCC)[S]C12CC3CC(CC(C3)C1)C2`, the T/C (dose: 100.0 mg/kg/injection, schedule: Q04DX003 (ip), vehicle: saline) is reported as 112 % of control, the T/C (dose: 200.0 mg/kg/injection, schedule: Q04DX003 (ip), vehicle: saline) is reported as 102 % of control and the T/C (dose: 400.0 mg/kg/injection, schedule: Q04DX003 (ip), vehicle: saline) is reported as 106 % of control.
In the case of `CC(=O)NNC1=NC(C)(C)CC1`, the T/C [5] is reported as 97 % of control, the T/C [6] is reported as 102 % of control and the T/C [7] is reported as 102 % of control.
In the case of `C1CCC(C2CCCC[N-]2)[N-]C1.C1CCC(C2CCCC[N-]2)[N-]C1.[Cl][Co][Cl]` (stereo not given), the T/C [18] is reported as 100 % of control and the T/C [19] is reported as 109 % of control.
With `O=C1C=CC2(CCCCC2)CC1` the T/C (dose: 25.0 mg/kg/injection, schedule: Q04DX003 (ip), vehicle: Klucel (hydroxypropylcellulose) (HPC)) was 97 % of control, the T/C (dose: 50.0 mg/kg/injection, schedule: Q04DX003 (ip), vehicle: Klucel (hydroxypropylcellulose) (HPC)) was 97 % of control and the T/C (dose: 100.0 mg/kg/injection, schedule: Q04DX003 (ip), vehicle: Klucel (hydroxypropylcellulose) (HPC)) was 95 % of control.
In the case of `CCOC(=O)C(CCC(=O)O)NC(=O)C(CCSC)NC(=O)OC(C)(C)C` (stereo not drawn) (Boc-Met-Glu-OEt; configuration not given here), the T/C [10] is reported as 102 % of control, the T/C [11] is reported as 102 % of control and the T/C [12] is reported as 97 % of control.
`O=C(O)c1ccc(N=CC2CO2)cc1` (stereo not given) was tested, and the T/C [20] was 99 % of control, the T/C [21] was 102 % of control and the T/C [22] was 87 % of control.
With `CCCCCCSC(=O)Nc1ccc(C)c(NC(=O)SCCCCCC)c1` the T/C [20] was 100 % of control, the T/C [21] was 100 % of control and the T/C [22] was 100 % of control.
With `CSC(=S)N/N=C(C)\C=N/Nc1ccccc1` the T/C (dose: 100.0 mg/kg/injection, schedule: Q04DX002 (ip), vehicle: saline) was 101 % of control, the T/C (dose: 200.0 mg/kg/injection, schedule: Q04DX002 (ip), vehicle: saline) was 106 % of control and the T/C (dose: 400.0 mg/kg/injection, schedule: Q04DX002 (ip), vehicle: saline) was 96 % of control.
`O=C1C=C(Nc2ccccc2N=C2C(N3C4=CCc5ccccc5C4=Nc4ccccc43)=CC(=O)c3ccccc32)C(=O)c2ccccc21` was tested, and the T/C [18] was 89 % of control, the T/C [19] was 91 % of control and the T/C [23] was 100 % of control.
`COc1ccc(COc2ccc(C(=O)CCN3CCOCC3)cc2)cc1` was tested, and the T/C [10] was 99 % of control, the T/C [11] was 99 % of control and the T/C [12] was 99 % of control.
In the case of `CN(C)CCC(=O)c1ccc(Cl)cc1Cl`, the T/C [18] is reported as 110 % of control and the T/C [19] is reported as 100 % of control.
`C/C(=N\NC(=S)N(C)C)c1ncc[nH]1` was tested, and the T/C [24] was 121 % of control and the T/C (dose: 100.0 mg/kg/injection, schedule: Q01DX005 (ip), vehicle: saline with Tween-80) was 119 % of control.
In the case of `NC(Cc1ccc2c(c1)OCO2)c1ccc2c(c1)OCO2` (stereo not given), the T/C [10] is reported as 101 % of control, the T/C [11] is reported as 99 % of control and the T/C [12] is reported as 101 % of control.
For `O=Cc1ccc(NCCCN2CCN(CCCNc3ccc(C=O)c4sc5ccccc5c(=O)c34)CC2)c2c(=O)c3ccccc3sc12`, the T/C (dose: 1.56 mg/kg/injection, schedule: Q01DX005 (ip), vehicle: saline with Tween-80) was 107 % of control, the T/C (dose: 3.13 mg/kg/injection, schedule: Q01DX005 (ip), vehicle: saline with Tween-80) was 101 % of control and the T/C [16] was 95 % of control. For the same molecule, the T/C [17] was 99 % of control and the T/C [24] was 88 % of control.
For `CCCc1nc2ccccc2c(=O)n1/N=C/c1ccsc1`, the T/C [3] was 100 % of control, the T/C [4] was 90 % of control and the T/C (dose: 400.0 mg/kg/injection, schedule: Q04DX003 (ip), vehicle: saline with Tween-80) was 90 % of control.
`CCCCCCCC[N+](C)(CCCCCCCC)CCCCCCCC` was tested, and the T/C (dose: 1.0 mg/kg/injection, schedule: Q04DX003 (ip), vehicle: saline) was 104 % of control, the T/C (dose: 2.0 mg/kg/injection, schedule: Q04DX003 (ip), vehicle: saline) was 104 % of control and the T/C (dose: 4.0 mg/kg/injection, schedule: Q04DX003 (ip), vehicle: saline) was 108 % of control.
In the case of `O=C(Nc1ccc(Cl)cc1C(F)(F)F)OCCCc1ccncc1`, the T/C [18] is reported as 98 % of control, the T/C [19] is reported as 91 % of control and the T/C [23] is reported as 91 % of control.
`NCCn1[nH]c(=O)c2ncccc2c1=O` was tested, and the T/C [8] was 108 % of control and the T/C [9] was 105 % of control.
